Key:
[1] = tested on: six bacteria strains (K. pneumoniae, P. aeruginosa, E. coli, VRE, MRSA, MRSE); test: Antimicrobial activity on the panel of six bacteria strains; format: cell-based
Procedure: Minimum Inhibitory Concentrations (MICs) Against Bacteria.
The antimicrobial activity of the compounds was tested on the following six bacteria strains: K. pneumoniae (ATCC 13383), P. aeruginosa (ATCC27853), E. coli (ATCC 25922), vancomycin-resistant Enterococcus faecalis(ATCC 700802), Methicillin-resistant S. aureus (MRSA, ATCC 33591), Methicillin-resistant S. epidermidis (MRSE, RP62A). The procedures were followed as reported previously (Hancock et al., Immunobiology 2006, 211, 315-322). Briefly, a single colony of each bacterium was inoculated in 3 mL TSB medium and incubated overnight at 37° C. Then the bacteria culture was diluted at 1:100 and the bacteria were allowed to grow to mid-logarithmic phase. Next, 50 μL of 2-fold serial dilutions of compounds (0.1-25 μg/mL) were added the 96-well plate containing aliquots of 50 μL of bacteria suspension (1×10^6 CFU/mL) in each well. The mixture was incubated at 37° C. for 16 h, and their absorption at 600 nm wavelength was read on a Biotek Synergy HT microtiter plate reader. […] The experiments were repeated at least three times with duplicates each time. HC50 means the concentration causing 50% hemolysis.

[2] = tested on: E. coli; test: Time-kill study; format: cell-based; conditions: 12.5 μg/mL
Procedure: The killing activity was monitored for the first 2 h. The concentrations for compound 11 were 2×MIC, 4×MIC, and 8×MIC, respectively.
Time-kill studies were conducted to investigate the bacterial killing kinetics of compounds 11 and 12 by using E. Coli. Briefly, the bacteria […] grew to mid-logarithmic phase in TSB medium, from which the suspension (10^6 CFU/ml) was made. The suspension was incubated with different concentrations of 11 or 12 for 10 min, 30 min, 1 h and 2 h respectively. The mixtures were diluted by 10^2 to 10^4 fold and spread on TSB agar plates. After incubation at 37° C. overnight, the colonies on the plates were counted and plotted against the incubation time. […] Cell colonies were counted in agar plates at 12.5, 25, and 50 μg/mL. Compound 11 at the concentration of 12.5 or 25 μg/mL completely removed all bacteria in 2 hours, and at 50 μg/mL it completely removed bacteria in 0.5 hour. Compound 12 killed E. Coli completely in 0.5 hour at the concentration of 12.5 μg/mL.

[3] = tested on: S. aureus ATCC 33591; test: Thigh burden infection model in neutropenic mice; format: in vivo, CD-1 female mice; conditions: 5 mg/kg i.v. at 1 and 7 h after infection, thighs harvested at 25 h
Procedure: Neutropenic mice (n=4 per group) were inoculated in the posterior thigh muscles with S. aureus ATCC 33591 at 1×10^6 CFU per thigh and then treated with compounds 11 and 12 (5 mg/kg per dose) by i.v. bolus injection in the tail vein at 1 and 7 h after infection.
A thigh burden model was employed to evaluate the in vivo anti-infective activity of compounds 11 and 12, in which the thigh muscle of neutropenic mice was inoculated with S. aureus, followed by intravenous (i.v.) administration of corresponding compounds. All protocols and methods associated with animal experiments were approved by University of South Florida (USF) Institutional Animal Care and Use Committee. The in vivo experiment on the mouse model of the thigh burden infection with MRSA was conducted adapted from previously reported protocol. The CD-1 female mice which were 6 to 8 weeks old and around 25 g in weights were used for the study. Neutropenic Mice were induced by injecting cyclophosphamide (150 mg/kg) intraperitoneally twice at 4 and 1 days before bacterial inoculation. One MRSA colony from tryptic soy agar (TSA) cultures was allowed to grow in tryptic soy broth (TSB) overnight at 37° C., then 100 μL culture was withdrawn and diluted with TSB to a total volume of 4 mL, which was subsequently incubated at 37° C. for another 6 h. […] The formed colonies were counted to calculate CFU per thigh.

Structure (SMILES): CCCCCCN1C(=N)N(CC(=O)Nc2cccc(NC(=O)CN3C[C@H](Cc4ccccc4)N(CCCCCC)C3=N)c2)C[C@@H]1Cc1ccccc1 [Compound 12]
- antibacterial activity against the tested bacteria (in words) [1]: potent and broad-spectrum activity
- MIC ([1]; read-out: MIC toward most strains): 0.75 µg/mL
- time to completely remove all bacteria [2]: 0.5 h
- decrease in colony-forming unit (CFU) per thigh [3]: 5 log10 CFU

— patent US10144713B1, “Bis-cyclic guanidines as antibacterial agents” (UNIVERSITY OF SOUTH FLORIDA, priority 2017, dated 2018)
